Measurements reported in patent US5032584A, “S-diastereomer of an n^6 -((2-hydroxypropyl)aryl)adenosine and its medicinal uses” (G. D. Searle & Co., priority 1988, dated 1991).
Entries after “also recorded” stand apart in the source; their conditions may differ.

Columns and labels:
[1] = tested on: spontaneously hypertensive rats (SHR); test: Effects on mean arterial pressure and heart rate in conscious spontaneously hypertensive rats (i.v. or intragastric); format: in vivo, rat
Procedure: The effects of compounds I and II were tested intravenously or intragastrically in conscious spontaneously hypertensive rats (SHR). The rats were anesthetized with ether and the left carotid artery and right jugular vein were cannulated with polyethylene tubing. The rats were allowed three to five hours recovery from anesthesia for the I.V. studies and 12 to 18 hours for the oral studies. Mean arterial pressure (MAP, in mm/Hg) and heart rate (HR, beats/min.) were measured from the artery; intravenous administration of compounds was performed by injection into the vein. Oral administration was performed by gastric intubation. Compounds were dissolved in DMSO for I.V. studies and injected in volumes of 100 μ1/kg or less (N=5 per pound). Doses were 3 to 1,000 μg/kg. Compounds were dissolved in polyethylene glycol for oral administration and injected in volumes of 1 ml/kg at a dose of 20 mg/kg/day for three days (N=3 to 6 per compound).
The resting MAP and HR for the SHR ranged between 160-200 mm Hg and 330/350 b/min., respectively.

[2] = tested on: plasma renin activity (PRA); test: Change in plasma renin activity in the bilateral renal artery ligated rat; format: in vivo, Sprague-Dawley rats; details: 1 mg/kg I.V.; for Prevention of PRA increase (in words): 30 and 60 minutes
Procedure: Adenosine Al receptor stimulation will inhibit the release of renin from the kidney. A stimulus for the release of renin is renal ischemia. The ability of the compounds of the present invention to prevent an increase in PRA following renal ischemia was tested in rats with both renal arteries ligated. Sprague-Dawley rats were anesthetized with ether and the renal arteries were ligated. Three to five hours after anesthesia, arterial blood was sampled and compounds I and II were administered in polyethylene glycol at 1 mg/kg I.V. At 30 and 60 minutes after administration, arterial blood was sampled for PRA measurement by the method of Sealy, J. E. et al., Cardiovasc. Med. 2:1079, 1977.

mice [3] = test: Ataxia on the rotating rod in mice; format: in vivo; details: for Percent ataxic, 0.5 hour / Percent ataxic, 3 hour: 54 ± 12 mg/kg ip (pooled 32, 56, 75 mg/kg)
Procedure: (§1) Adenosine analogs tend to produce sedation and central nervous system depression which have prevented their therapeutic utility. The compounds of the invention, at doses which lower arterial pressure in the SHR, show no evidence of CNS depression. The ataxia produced by compounds of the present invention was measured in mice by injecting the compounds IP at doses of 32, 56, or 75 mg/kg in an aqueous suspension, n=7 per dose. The mice had previously been trained to remain on a rotating rod. After dosing, the percent of mice unable to remain on the rotating rod was determined. […] The mice were also observed at various time intervals for behavioral signs of toxicity.

mice [4] = test: Behavioral toxicity in mice after 75 mg/kg IP; format: in vivo; set-up: key to Motor depression / Ptosis / Respiratory depression / Flaccidity / Loss of righting reflex: +: toxic symptom observed
Procedure: as §1

Solubility in MeOH = format: physicochemical; details: S isomer vs R isomer
[5] = tested on: adenosine A1 receptor in the granular juxtaglomerular cells of the kidney; details: Federation Proceedings 44:879 & 1643, 1985; cited from earlier work
[6] = 20 mg/kg intragastric, day 2 of oral administration

Row | SMILES | Prevention of PRA increase (in words) [2] | Percent ataxic, 0.5 hour (mice [3]) [%] | Percent ataxic, 3 hour (mice [3]) [%] | Flaccidity (mice [4]; 75 mg/kg IP, 18-20 h) | Motor depression (mice [4]; 75 mg/kg IP, 18-20 h) | Ptosis (mice [4]; 75 mg/kg IP, 18-20 h) | Motor depression (mice [4]; 75 mg/kg IP, 0.5 h) | Ptosis (mice [4]; 75 mg/kg IP, 0.5 h) | Motor depression (mice [4]; 75 mg/kg IP, 3 h) | Ptosis (mice [4]; 75 mg/kg IP, 3 h) | Solubility in MeOH (in words) (Solubility in MeOH) | also measured
1 | OC[C@H]1O[C@@H](n2cnc3c(NC[C@H](O)COc4cccc5ccccc45)ncnc32)[C@H](O)[C@@H]1O [Compound II, N^6-[2S-hydroxy-3-(1naphthalenyloxy)propyl]-adenosine] | prevented to the same extent | 14 ± 8 | 48 ± 21 | + | + | + | + | + | + | + | less soluble in MeOH | Maximum decrease at 20 mg/kg ig, HR [1, 6]: 202 ± 24 b/min; Maximum decrease at 20 mg/kg ig, MAP [1, 6]: 62 ± 7 mmHg; ED (HR decrease by 100 b/min) ([1]; Rattus norvegicus, iv, i.v. in DMSO, read-out: IV dose to decrease HR by 100 b/min): 0.036 ± 0.0012 mg/kg; ED (MAP decrease by 40 mmHg) ([1]; Rattus norvegicus, iv, i.v. in DMSO, read-out: IV dose to decrease MAP by 40 mmHg): 0.047 ± 0.0012 mg/kg; Change in PRA, 30 minutes ([2]; 30 min after dosing): -11.7 ± 3.5 ngAI/ml/hr; Change in PRA, 60 minutes ([2]; 60 min after dosing): -13.8 ± 4.9 ngAI/ml/hr; Central nervous system toxicity (in words) (mice [3]; compared to compound I / racemic mixture): less CNS toxic than compound I, especially with regard to ataxia; also recorded: less central nervous system toxicity than the racemic mixture; Ataxia / motor toxicity (in words) (mice [3]; mice, ip, compared to compound I): less ataxia at 0.5 or 3 hours as compared to compound I; also recorded: less motor toxicity than compound I; Motor depression (mice [4]; 75 mg/kg IP, 24 h): +; Motor depression, incidence (mice [4]; 75 mg/kg IP, 24 h): 5/7; Ptosis (mice [4]; 75 mg/kg IP, 24 h): +; Ptosis, incidence (mice [4]; 75 mg/kg IP, 24 h): 5/7; Respiratory depression, incidence (mice [4]; 75 mg/kg IP, 24 h): 5/7; Respiratory depression (mice [4]; mouse, in vivo): +
2 | OC[C@H]1O[C@@H](n2cnc3c(NC[C@@H](O)COc4cccc5ccccc45)ncnc32)[C@H](O)[C@@H]1O [R isomer] |  |  |  |  |  |  |  |  |  |  | more soluble in MeOH | 
3 | OC[C@H]1O[C@@H](n2cnc3c(NCC(O)COc4cccc5ccccc45)ncnc32)[C@H](O)[C@@H]1O (mixture of isomers) [Compound I, N(6)-[2-hydroxy-3-(1-naphthyloxy)propyl]-adenosine] | prevented to the same extent | 33 ± 10 | 95 ± 5 | + | + | + | + | + | + | + |  | Flaccidity, incidence (footnote *) (mice [4]; 75 mg/kg IP, 18-20 h): 2/7; Respiratory depression (mice [4]; 75 mg/kg IP, 18-20 h): +; Respiratory depression (mice [4]; 75 mg/kg IP, 0.5 h): +; Behavioral toxicity (in words) (mice [4]; 75 mg/kg IP, 3 h): flaccidity and loss of righting reflex; Flaccidity (mice [4]; 75 mg/kg IP, 3 h): +; Loss of righting reflex (mice [4]; 75 mg/kg IP, 3 h): +; Respiratory depression (mice [4]; 75 mg/kg IP, 3 h): +; Binding to adenosine A1 receptor and effect on renin release, blood pressure, heart rate (in words) [5]: binds to the adenosine Al receptor in the granular juxtaglomerular cells of the kidney to inhibit release of renin into the plasma, ultimately resulting in a reduction in circulating angiotensin II, thus reducing arterial blood pressure and heart rate in hypertensive models
